These results are taken from patent US20240182460A1, “ALLOSTERIC CHROMENONE INHIBITORS OF PHOSPHOINOSITIDE 3-KINASE (PI3K) FOR THE TREATMENT OF DISEASE” (PETRA PHARMA CORPORATION, priority 2022, published 2024).

Read-outs that look alike come from different tables or passages of the source. Bounds are passed on as bounds.

As a reminder, the IC50 is the concentration that gives 50% inhibition. A higher IC50 goes with lower potency.

For one series, the target named is T1, PI3Kα H1047R (Homo sapiens, UniProt P42336, H1047R).
T1 construct: The MDA-MB-453 (ATCC-HTB-131) cell line (PI3Kα H1047R); host or cells: MDA-MB-453
In words: PI3Kα H1047R mutant in vitro cell based assay, MDA-MB-453 cells (AlphaLisa SureFire). The conditions noted are these: MDA-MB-453 cell line, 0% FBS, 3 hours treatment. The source says: PI3K-Alpha Kinase (PI3Kα) Activity: Wild-Type PI3Kα, H1047R Mutant PI3Kα, and E545K Mutant PI3Kα In Vitro Cell Based Assays and Determination of IC50 Values for Inhibitors
The MDA-MB-453 (ATCC-HTB-131) cell line (PI3Kα H1047R) and MCF-7 (ATCC-HTB-22) cell line (PI3Kα E545K), MDA-MB-361 (ATCC-HTB-27) cell line (PI3Kα E545K), and SKBR3 (ATCC-HTB-30) cell line (wild type PI3Kα) were obtained from the American Type Culture Collection (Manassas, VA). MDA-MB-453 cells were maintained in Dulbecco's Modified Eagle Media (DMEM, Gibco 12430) supplemented with 10% Fetal Bovine Serum, heat inactivated (FBS HI, Gibco 10082), 1× non-essential amino acids (NEAA, Gibco 11140), 1 mM sodium pyruvate (Gibco 11360) and 1× Anti-Anti (Gibco 15240). MCF-7 cells were maintained in Minimum Essential Media (MEM) (Gibco 11095) supplemented with 10% Fetal Bovine Serum, heat inactivated (FBS HI, Gibco 10082), 1× non-essential amino acids (NEAA, Gibco 11140), 1 mM sodium pyruvate (Gibco 11360), 1× Anti-Anti (Gibco 15240) and 10 μg/mL human insulin (Sigma I 9278). MDA-MB-361 cells were maintained in Dulbecco's Modified Eagle Media (DMEM, Gibco 12430) supplemented with 20% Fetal Bovine Serum, heat inactivated (FBS HI, Gibco 10082), 1× non-essential amino acids (NEAA, Gibco 11140), 1 mM sodium pyruvate (Gibco 11360) and 1× Anti-Anti (Gibco 15240). SKBR3 cells were maintained in McCoy's 5A (Gibco 16600) supplemented with 10% Fetal Bovine Serum, heat inactivated (FBS HI, Gibco 10082), and 1× Anti-Anti (Gibco 15240). Cultures were maintained in a humidified incubator at 37° C. under 5% CO2/95% air.
For compound testing in 0% FBS, MDA-MB-453, MCF-7 and SKBR3 cells were seeded at a density of 1.5×10^4, 1.0×10^4, and 1.0×10^4 cells, respectively, per well in white 384-well plates in 20 μl of Minimum Essential Media (MEM) assay media with 1×NEAA, 1 mM sodium pyruvate, and 1 μg/mL human insulin (Sigma 19278) (Assay Medium); while MDA-MB-361 cells were seeded at a density of 1.5×10^4 per well in white 384-well plates in 20 μl Assay Medium without insulin. After plating, cells were allowed to attach overnight. Compounds dissolved in 10 mM stock solutions in DMSO were serially diluted 1:3 in DMSO to generate a 10-point dilution series and plated using an acoustic liquid handler system (Echo 550 Series Liquid Handler, Labcyte). A 5× intermediate compound dilution plate in MEM with 1×NEAA and 1 mM sodium pyruvate (150 μM starting compound concentration in 1.5% DMSO) was then prepared. Five μl of the intermediate serially diluted compounds were added to the cell plate to final concentrations ranging from […] in 0.3% DMSO. 0.3% DMSO alone was used to establish the maximum (MAX) signal and GDC-0032 at a final concentration of 1 μM was used as a reference compound for the minimum (MIN) signal. After 3 hours treatment, the medium was removed, and the cells were lysed in 10 μL of 1× SureFire Lysis buffer with shaking for 10 minutes at room temperature. The Acceptor Mix (Reaction Buffer 1+Reaction Buffer 2+Activation Buffer+SureFire Ultra Acceptor Beads) was prepared by diluting Activation buffer 25-fold in combined Reaction Buffer 1 and Reaction Buffer 2.
The Acceptor beads were diluted 50-fold in the combined Reaction Buffers. Five μL of Acceptor Mix was added to each well, the plate was sealed and covered with foil and incubated for 1 hour at room temperature. The Donor Mix (dilution buffer+SureFire Ultra Donor Beads) was prepared by diluting Donor Beads 50-fold in dilution buffer. Five μL of the Donor Mix was added to each well and the plate sealed and covered with foil and incubated for 1-2 hours at room temperature in the dark. The plates were read on a Neo2 plate reader instrument from Biotek using standard AlphaLisa settings.
Compounds were tested in duplicate and the % inhibition at each compound concentration was used to generate two dose response curves. One IC50 was generated using average % inhibition at each compound concentration. […]

Series [1] addresses T2, PI3Kα E545K (Homo sapiens, UniProt P42336, E545K). The series is described as follows: PI3Kα E545K mutant in vitro cell based assay, MCF-7 cells. The conditions noted are these: MCF-7 cell line, 0% FBS, 3 hours treatment. Summed up: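 MCF-7 cells (PI3Kα E545K) in serum-free MEM with 1 μg/mL insulin were treated 3 h with 10-point 1:3 dilutions in 0.3% DMSO. Lysates were read by SureFire AlphaLisa. IC50 was fitted by 4-parameter logistic to % inhibition relative to DMSO (max) and 1 μM GDC-0032 (min), duplicates averaged.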

The nature of series [2]: Metabolic stability and intrinsic clearance in human liver microsomes (MICS). As to conditions: pH 7.4. It counts as in vitro ADME. The procedure, abridged:
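Parent depletion by LC-MS/MS, run in duplicate, gave in vitro t1/2 from the slope of ln(% remaining) versus time, converted to CLint (μL/min/mg protein). Incubations: 1 μM compound, microsomes at 0.5 mg/mL, pH 7.4 phosphate, 37° C, ±1 mM NADPH, timepoints 0.5, 5, 15, 30, 60 min.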
In general terms: Liver microsomes are a subcellular fraction often used to study metabolism.

Series [3] deals with T2, PI3Kα E545K. In words: PI3Kα E545K mutant in vitro cell based assay, MDA-MB-361 cells. The arrangement: MDA-MB-361 (ATCC-HTB-27) cell line (PI3Kα E545K); host or cells: MDA-MB-361. The conditions noted are these: MDA-MB-361 cell line, 0% FBS, no insulin, 3 hours treatment. The procedure, abridged:
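Compound exposure lasted 3 hours, in duplicate 10-point 1:3 dilutions at 0.3% DMSO final, on overnight-attached MDA-MB-361 cells carrying PI3Kα E545K in insulin-free, 0% FBS MEM. Lysates read by SureFire AlphaLISA. Relative IC50 from 4-parameter logistic fit versus DMSO and 1 μM GDC-0032 controls.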

T2 sequence (P42336 whole entry E545K): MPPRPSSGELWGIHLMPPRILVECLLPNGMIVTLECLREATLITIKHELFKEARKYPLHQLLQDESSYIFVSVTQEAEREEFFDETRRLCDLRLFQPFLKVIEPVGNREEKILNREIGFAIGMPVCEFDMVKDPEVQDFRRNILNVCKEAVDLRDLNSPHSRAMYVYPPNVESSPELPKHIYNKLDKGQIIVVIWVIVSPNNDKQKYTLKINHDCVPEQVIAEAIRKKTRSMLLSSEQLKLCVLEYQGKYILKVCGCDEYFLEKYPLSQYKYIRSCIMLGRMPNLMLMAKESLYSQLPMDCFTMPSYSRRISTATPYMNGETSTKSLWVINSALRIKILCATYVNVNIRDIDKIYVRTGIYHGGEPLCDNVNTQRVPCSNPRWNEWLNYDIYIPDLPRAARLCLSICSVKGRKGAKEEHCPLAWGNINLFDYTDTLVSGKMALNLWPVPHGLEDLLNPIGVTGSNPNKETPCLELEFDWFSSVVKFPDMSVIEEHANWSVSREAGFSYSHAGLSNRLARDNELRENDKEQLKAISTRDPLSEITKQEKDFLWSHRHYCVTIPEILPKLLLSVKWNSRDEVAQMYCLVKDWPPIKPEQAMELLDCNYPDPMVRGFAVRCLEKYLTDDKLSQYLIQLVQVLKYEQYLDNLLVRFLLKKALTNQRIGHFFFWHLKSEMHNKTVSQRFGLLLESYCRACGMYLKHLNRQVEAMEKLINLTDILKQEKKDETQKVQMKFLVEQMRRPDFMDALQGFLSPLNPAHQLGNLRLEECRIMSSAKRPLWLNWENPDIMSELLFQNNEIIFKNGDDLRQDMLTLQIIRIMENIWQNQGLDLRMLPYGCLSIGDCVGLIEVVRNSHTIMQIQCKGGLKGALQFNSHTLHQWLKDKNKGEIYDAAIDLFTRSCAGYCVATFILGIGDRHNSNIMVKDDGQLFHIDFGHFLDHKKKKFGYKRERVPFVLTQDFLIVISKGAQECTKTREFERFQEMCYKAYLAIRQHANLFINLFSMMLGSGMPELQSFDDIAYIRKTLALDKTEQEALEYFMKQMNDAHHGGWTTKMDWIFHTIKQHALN
T2 sequence (P27986 whole entry partner): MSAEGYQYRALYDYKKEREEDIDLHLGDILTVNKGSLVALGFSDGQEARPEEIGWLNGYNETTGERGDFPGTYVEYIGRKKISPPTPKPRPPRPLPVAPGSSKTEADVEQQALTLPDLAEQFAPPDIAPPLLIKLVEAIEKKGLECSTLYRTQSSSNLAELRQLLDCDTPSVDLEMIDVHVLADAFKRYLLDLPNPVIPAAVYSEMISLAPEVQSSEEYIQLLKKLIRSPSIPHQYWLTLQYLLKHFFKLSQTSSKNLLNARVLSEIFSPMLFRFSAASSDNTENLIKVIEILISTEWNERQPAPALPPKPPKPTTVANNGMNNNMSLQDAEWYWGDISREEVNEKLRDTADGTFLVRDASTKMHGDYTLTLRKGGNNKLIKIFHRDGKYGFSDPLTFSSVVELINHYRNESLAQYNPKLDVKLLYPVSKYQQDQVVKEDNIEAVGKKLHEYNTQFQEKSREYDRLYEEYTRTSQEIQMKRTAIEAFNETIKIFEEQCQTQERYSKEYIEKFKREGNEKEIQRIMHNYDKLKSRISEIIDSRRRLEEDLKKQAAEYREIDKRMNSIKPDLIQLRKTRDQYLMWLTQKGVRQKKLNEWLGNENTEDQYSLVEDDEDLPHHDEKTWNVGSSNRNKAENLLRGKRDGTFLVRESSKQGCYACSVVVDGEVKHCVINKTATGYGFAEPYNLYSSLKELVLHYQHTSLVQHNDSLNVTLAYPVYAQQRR
T1 sequence (P42336 whole entry H1047R): as the sequence (P42336 whole entry E545K) above, with K545E, H1047R counted along it
T1 sequence (P27986 whole entry partner): as the sequence (P27986 whole entry partner) above

For `Cc1cc(C(C)Oc2ccc(Cl)nc2C)c2oc(-c3cccnc3)c(C)c(=O)c2c1` (single isomer, unassigned; isomer 2) [Example 10, 8-[1-[(6-Chloro-2-methyl-3-pyridyl)oxy]ethyl]-3,6-dimethyl-2-(3-pyridyl)chromen-4-one, Isomer 2], the IC50 on PI3Kα H1047R was below 100 nM; against PI3Kα E545K [1], below 500 nM.

As for `Cc1cc([C@@H](C)Oc2ccc(Cl)nc2C)c2oc(-c3ccccc3)c(C)c(=O)c2c1` [Example 1, 8-[(1R)-1-[(6-Chloro-2-methyl-3-pyridyl)oxy]ethyl]-3,6-dimethyl-2-phenyl-chromen-4-one], the half-inhibitory concentration (IC50) against PI3Kα H1047R was below 100 nM; against PI3Kα E545K [1], below 500 nM.

Take `Cc1cc([C@@H](C)Oc2ccc(Cl)nc2-c2noc(=O)[nH]2)c2oc(-c3ccccc3)c(C)c(=O)c2c1` [Example 2, 3-[6-Chloro-3-[(1R)-1-(3,6-dimethyl-4-oxo-2-phenyl-chromen-8-yl)ethoxy]-2-pyridyl]-4H-1,2,4-oxadiazol-5-one]: the results for the IC50 against PI3Kα H1047R and against PI3Kα E545K [1] were below 100 nM and below 500 nM, respectively. In addition, in series [2] (human liver microsomes 0.5 mg/mL, 1 μM compound, read-out: intrinsic clearance in human MICS), the microsomal CLint at 1 μM was below 50 µL/min/mg.

Take `Cc1cc([C@@H](C)Oc2ccc(Cl)nc2C(N)=O)c2oc(-c3ccc4[nH]ncc4c3)c(C)c(=O)c2c1` [Example 22B, 6-Chloro-3-[(1R)-1-[2-(1H-indazol-5-yl)-3,6-dimethyl-4-oxo-chromen-8-yl]ethoxy]pyridine-2-carboxamide]: the concentration for half-maximal inhibition (IC50) was below 100 nM against PI3Kα H1047R, below 500 nM at PI3Kα E545K [1] and below 500 nM against PI3Kα E545K [3].

Take `Cc1cc([C@@H](C)Oc2ccc(Cl)nc2S(C)(=O)=O)c2oc(-c3cnn(CCO)c3)c(C)c(=O)c2c1` [Example 29B, 8-[(1R)-1-[(6-Chloro-2-methylsulfonyl-3-pyridyl)oxy]ethyl]-2-[1-(2-hydroxyethyl)pyrazol-4-yl]-3,6-dimethyl-chromen-4-one]: the concentration for half-maximal inhibition (IC50) is below 100 nM on PI3Kα H1047R, below 500 nM against PI3Kα E545K [1] and below 500 nM at PI3Kα E545K [3].

For the compound `Cc1cc([C@@H](C)Oc2ccc(Cl)nc2N)c2oc(-c3cnn(C)c3)c(C)c(=O)c2c1` [Example 30B, 8-[(1R)-1-[(2-Amino-6-chloro-3-pyridyl)oxy]ethyl]-3,6-dimethyl-2-(1-methylpyrazol-4-yl)chromen-4-one], the IC50 on PI3Kα H1047R is below 100 nM; against PI3Kα E545K [1], below 500 nM; at PI3Kα E545K [3] it was below 500 nM.

In the case of `Cc1cc([C@@H](C)Oc2ccc(Cl)nc2S(N)(=O)=O)c2oc(-c3ccc(S(C)(=O)=O)cc3)c(C)c(=O)c2c1` [Example 31C, 6-Chloro-3-[(1R)-1-[3,6-dimethyl-2-(4-methylsulfonylphenyl)-4-oxo-chromen-8-yl]ethoxy]pyridine-2-sulfonamide], the 50% inhibitory concentration (IC50) at PI3Kα H1047R is below 100 nM; on PI3Kα E545K [1] it was below 500 nM; against PI3Kα E545K [3], below 500 nM.

Compound `Cc1cc([C@@H](C)Oc2ccc(Cl)nc2S(N)(=O)=O)c2oc(-c3cccnc3)c(C)c(=O)c2c1` [Example 42A, 6-Chloro-3-[(1R)-1-[3,6-dimethyl-4-oxo-2-(3-pyridyl)chromen-8-yl]ethoxy]pyridine-2-sulfonamide] came in with a half-maximal inhibitory concentration (IC50) against PI3Kα H1047R below 100 nM. In series [2] (human, microsomes), the microsomal CLint at 1 μM was below 50 µL/min/mg.

Regarding `Cc1cc([C@@H](C)Oc2ccc(Cl)nc2C(N)=O)c2oc(-c3cc(C)c4nn(C)cc4c3)c(C)c(=O)c2c1` [Example 45C, 6-Chloro-3-[(1R)-1-[2-(2,7-dimethylindazol-5-yl)-3,6-dimethyl-4-oxo-chromen-8-yl]ethoxy]pyridine-2-carboxamide], the IC50 is below 100 nM on PI3Kα H1047R and below 500 nM on PI3Kα E545K [1].

In the case of `Cc1cc([C@@H](C)Oc2ccc(Cl)nc2C(N)=O)c2oc(-c3ccc4nn(C)cc4c3)cc(=O)c2c1` [Example 52A, 6-Chloro-3-[(1R)-1-[6-methyl-2-(2-methylindazol-5-yl)-4-oxo-chromen-8-yl]ethoxy]pyridine-2-carboxamide], the IC50 against PI3Kα H1047R is below 100 nM; on PI3Kα E545K [1] it was below 500 nM; against PI3Kα E545K [3], below 500 nM.

With `Cc1cc([C@@H](C)Oc2ccc(Cl)nc2C(N)=O)c2oc(-c3ccc4nc(C)sc4c3)c(C)c(=O)c2c1` [Example 68A, 6-Chloro-3-[(1R)-1-[3,6-dimethyl-2-(2-methyl-1,3-benzothiazol-6-yl)-4-oxo-chromen-8-yl]ethoxy]pyridine-2-carboxamide], the IC50 on PI3Kα H1047R was below 100 nM; against PI3Kα E545K [1], below 500 nM; on PI3Kα E545K [3], below 500 nM.

For `Cc1cc([C@@H](C)Oc2ccc(Cl)nc2S(N)(=O)=O)c2oc(C3CC3)c(C)c(=O)c2c1` [Example 74A, 6-Chloro-3-[(1R)-1-(2-cyclopropyl-3,6-dimethyl-4-oxo-chromen-8-yl)ethoxy]pyridine-2-sulfonamide], the half-inhibitory concentration (IC50) against PI3Kα H1047R was below 100 nM; against PI3Kα E545K [1], below 500 nM; against PI3Kα E545K [3], below 500 nM.

Turning to `Cc1cc([C@@H](C)Oc2ccc(Cl)nc2S(N)(=O)=O)c2oc(-c3cnc(C4CC4)nc3)c(C)c(=O)c2c1` [Example 83A, 6-Chloro-3-[(1R)-1-[2-(2-cyclopropylpyrimidin-5-yl)-3,6-dimethyl-4-oxo-chromen-8-yl]ethoxy]pyridine-2-sulfonamide], the IC50 is below 100 nM at PI3Kα H1047R and below 500 nM on PI3Kα E545K [1]. The same compound registered a microsomal CLint at 1 μM in series [2] (human, microsomes) below 50 µL/min/mg.

As to `Cc1cc([C@@H](C)Oc2cccnc2S(N)(=O)=O)c2oc(-c3ccccc3)c(C)c(=O)c2c1` [Example 94C, 3-[(1R)-1-(3,6-Dimethyl-4-oxo-2-phenyl-chromen-8-yl)ethoxy]pyridine-2-sulfonamide], the values for the 50% inhibitory concentration (IC50) against PI3Kα H1047R and on PI3Kα E545K [1] were below 100 nM and below 500 nM, respectively.

Turning to `Cc1cc([C@@H](C)Oc2ccc(Cl)nc2S(C)(=O)=O)c2oc(-c3cnn(C)c3)c(C)c(=O)c2c1` [Example 146A, 8-[(1R)-1-[(6-Chloro-2-methylsulfonyl-3-pyridyl)oxy]ethyl]-3,6-dimethyl-2-(1-methylpyrazol-4-yl)chromen-4-one], the 50% inhibitory concentration (IC50) was below 100 nM against PI3Kα H1047R, below 500 nM against PI3Kα E545K [1] and below 500 nM against PI3Kα E545K [3].
